Results: patent US6046231A, “Use of 4'-bromoflavone in a cancer chemopreventative composition and method” (The Board of Trustees of the University of Illinois, priority 1999, dated 2000)
“Also recorded” adds a separate entry of the source. Like-named read-outs stand apart in the source and are kept apart here.

Tests used:
[1] = tested on: quinone reductase (QR), Hepa 1c1c7 cells; assay: Quinone reductase (QR) induction in Hepa 1c1c7 cells; type: cell-based, murine
Text: This test was used because the specific activity of QR rises concomitantly with other phase II enzymes in many animal tissues in response to various chemopreventive agents. The study included natural and synthetic B-ring substituted flavones, as well as biosynthetic precursor chalcones and flavanones.
Determination of Quinone Reductase Activity in Cell Cultures. To determine the potency of inducers, Hepa 1c1c7 murine hepatoma cells as described in the Gerhauser publication were placed in 96-well plates at a density of 1×10^4 cells/ml in 200 μl of medium. After a preincubation period of 24 hr, the media were decanted and 190 μl fresh media were added to each well. Ten (10) μl test agents dissolved in 10% DMSO (final concentration of DMSO is 0.5%) with a serial 2-fold dilutions were introduced to each well, and the plates were incubated for an additional 48 hours. Specific QR activity was determined by measuring the NADPH-dependent menadiol-mediated reduction of 3-(4, 5-dimethylthiazo-2-yl)-2,5-diphenyltetrazolium bromide to blue formazan formed per mg protein per minute. Protein was determined in an identical set of test plates by staining with crystal violet. Hepa 1c1c7 cells retain many characteristics of normal issues, particularly the capacity for carcinogen activation and metabolism. They are amenable to precise control of environmental, nutritional, and hormonal factors. […] Induction of QR activity was calculated by comparing the QR specific activity of agent-treated cells with that of solvent-treated cells, and a plot of ratio was generated. CD represents the concentration required to double QR induction. Chemopreventive index (CI) is an indexing value generated by comparing CD with IC50 (concentration for 50% inhibition of cell viability) values.
Induction of Quinone Reductase in Hepa 1c1c7 Cells. […] Modification of the B-ring of chalcones, flavanones, and flavones was hypothesized to induce torsion of the B-ring, and, therefor, simulate out-of-plane distortions characteristic of polycyclic aromatic hydrocarbons, such as DMBA. Induction of QR activity was calculated by comparing the QR specific activity of agent-treated cells with the QR specific activity of solvent-treated cells, and a plot of ratios was generated. CD represents the concentration required for a double fold of induction. CI (Chemopreventive Index) is a value obtained by comparing CD with IC50 (concentration for 50% inhibition of cell viability in […]).

Hepa 1c1c7 cells [2] = assay: Hepa 1c1c7 cell viability (cytotoxicity); type: cell-based, murine; conditions: Mus musculus, Hepa-1c1c7, read-out: IC50, concentration for 50% inhibition of cell viability
[3] = tested on: QR XRE-CAT construct, HepG2 cells; assay: CAT expression in HepG2 cells transfected with QR XRE-CAT; type: cell-based, human cells; rat QR gene; conditions: 10 μM, 48 h
Description: (§1) Transcient Transfection Gene Expression Assay. Cultured HepG2 human hepatoma cells were transfected with three plasmid constructs (PDTD-1697CAT, XRE-CAT, ARE-CAT) containing various portions of the 5'-region of the QR gene fused to the CAT gene using the calcium phosphate precipitation method (J. Sambrook et al., Molecular cloning: A Laboratory Handbook, Ed. Chris Nolan, CHS Laboratory Press, 1989). After 4 hours of transfection, the cells were treated with 10% glycerol for 3 minutes and rinsed with PBS and switched to MEM, containing 100 units/ml penicillin G sodium, 100 units/ml streptomycin sulfate, nonessential amino acids, and 1 mM sodium pyruvate (Life Technologies Inc.) supplemented with 10% fetal bovine serum for 12-16 hours recovery. Then, test agents were added to the cells. After 48 hours of treatment with the test agents, cells were harvested with lysis buffer (Boehringer Mannheim Biochemical) and CAT protein expressions were assessed using a CAT ELISA kit (Boehringer Mannheim Biochemical). CAT enzyme expression was normalized for the protein content of each sample. All data were expressed as mean +/- SD. Means were compared using Student's t test with n=4.
(§2) This was further investigated in transient transfection experiments wherein human hepatoma cells were transfected with DNA constructs containing various portions of the 5' upstream promoter region of the QR gene linked to the CAT reporter gene by using the calcium phosphate precipitation method. Construct pDTD-1097CAT contains elements of the rat QR gene connected to the CAT construct gene. […]
(§3) In particular, FIG. 1 illustrates quantitation of CAT expression in HepG2 cells transfected with QR-CAT constructs. […] CAT expression (ng CAT/mg protein) was determined using a CAT ELISA, and the ratio of CAT expression between treated and control cells was calculated (ratio=treated/control).

[4] = tested on: quinone reductase (QR), Hepa 1c1c7 cells; conditions: reported comparator value; cited from earlier work
GST Ya (α class) = assay: Western blot of GST Ya (α-type) expression in H4IIE cells; type: cell-based, rat
Description: (§4) Western Blot Analysis Glutathione S-transferase Expression. Cultured H4IIE rat hepatoma cells were treated with test agent with various concentrations or various time points. […] Cells were harvested using SDS lysis buffer (20 mM Tris-Cl, pH 6.8, containing 0.4% SDS (w/v), 4% glycerol, 0.24 M β-mercaptoethanol, and 0.5% bromphenol) and the lysates were boiled for 5 minutes, then stored at -20° C. An aliquot of lysate was used for protein determination using a bicichoninic acid protein assay kit with BSA as a standard. Equivalent amounts of protein were electrophoresed by SDS-PAGE on precast 12.5% Tris-glycine acrylamide gels (Novex, San Diego, Calif.), then transferred to polyvinylidene difluoride (PDVF) membranes. Nonspecific binding sites were blocked with 10% nonfat dry milk and blotting was performed with goat polyclonal antirat GSTYa (α class) IgG or antirat, GSTYb (μ class) IgG and analyzed by alkaline phosphatase-conjugated antigoat IgG secondary antibody (Oxford Biomed Research, Inc.) and quantified using an AP 20 Alkaline Phosphatase Kit detection system (Oxford Biomed Research, Inc.).
(§5) Induction of Expression of Glutathione S-transferase Ya (α-type) and Yb (μ-type) in Cell Cultures. […] To date, the superfamily of mammalian cytosolic GST isozymes has been defined genetically to consist of four classes; α, μ, π, and θ, which differ in tissue-specificexpression and distribution, as well as substrate specificity. […] Cultured H4IIE cells were treated either with 10 μM of 4'-BF (FIG. 7B) or sulforaphane for 0, 2, 4, 8, 16, 24, and 48 hours for a time-dependent study, or with 0.16, 0.8, 4, 10, 20, and 50 μM of 4'-BF (FIG. 7A) or sulforaphane for 24 hr for a dose-dependent study (FIG. 7A). The expressions of two major detoxification isoforms of GSTs (GST Ya: α-type, and GST Yb: μ-type) mediated by 4'-BF or sulforaphane were investigated in H4EII rat hepatoma cells using Western blotting technique.

H4IIE rat hepatoma cells = assay: Toxicity in H4IIE rat hepatoma cells; type: cell-based
GST Yb (μ class) = assay: Western blot of GST Yb (μ-type) expression in H4IIE cells; type: cell-based, rat
Description: as §4, §5

[5] = tested on: pDTD-1097CAT construct (QR gene 5'-region), HepG2 cells; assay: CAT expression in HepG2 cells transfected with pDTD-1097CAT; type: cell-based, human cells; rat QR gene; conditions: 10 μM, 48 h; p<0.0001
Description: as §1, with “CAT enzyme expression was normalized for the protein content of each sample.” left out, “Means were compared using Student's t test with n=4.” left out
as §3

[6] = tested on: QR ARE-CAT construct, HepG2 cells; assay: CAT expression in HepG2 cells transfected with QR ARE-CAT; type: cell-based, human cells; rat QR gene; conditions: 10 μM, 48 h; p<0.0001
Description: as §1, §2, §3

Hepa 1c1c7 cells [7] = conditions: comparator value; read-out: IC50 (toxicity), comparison value; cited from earlier work

Structure (SMILES) | CI, chemoprevention index (IC50/CD) ([1]; IC50/CD, 2880 min) | EC (2-fold) ([1]; Mus musculus, Hepa-1c1c7, 48 h, Hepa 1c1c7 cells, 48 h, read-out: CD, concentration to double the specific activity of QR) [µM] | IC50 (Hepa 1c1c7 cells [2]) [µM] | CAT expression, QR XRE-CAT [3] | CD, comparison value [4] [µM] | maximum induction time, GST Ya (GST Ya (α class); 10 μM, 0-48 h) [h] | maximum induction concentration, GST Ya (GST Ya (α class); 0.16-50 μM, 24 h) [µM] | GST Ya (α) induction (GST Ya (α class); H4IIE cells) | toxicity in H4IIE cells (H4IIE rat hepatoma cells) | maximum induction time, GST Yb (GST Yb (μ class); 10 μM, 0-48 h) [h] | maximum induction concentration, GST Yb (GST Yb (μ class); 0.16-50 μM, 24 h) [µM] | GST Yb (μ) induction (GST Yb (μ class); H4IIE cells) | CAT expression, pDTD-1097CAT [5] | CAT expression, QR ARE-CAT [6] | IC50 (Hepa 1c1c7 cells [7]) [µM]
C[S+]([O-])CCCCN=C=S (stereo not drawn) [Sulforaphane, sulforaphane, reference compound] | 26 | 0.43 | 11 | not observed | 0.23 | 16 to 24 | 4 to 10 | Time, dose-dependent induction | a declined induction for sulforaphane was observed at a concentration higher than 10 μM due to the toxic effects | 16 to 24 | 4 to 10 | Time, dose-dependent induction | significantly (p<0.0001) induced | significantly (p<0.0001) induced; also recorded: selectively interacted with the ARE | 
O=c1cc(-c2ccccc2)oc2ccc3ccccc3c12 [β-naphthoflavone] |  |  |  | significantly (P<0.0001, students t test with n=4) induced | 0.02 to 0.04 |  |  |  |  |  |  |  |  | significantly (P<0.0001, students t test with n=4) induced | 8
